Holding throughout (assay): Yeast 6x EcRE-lacZ β-galactosidase transactivation assay
Test [1] concerns the target T1, Aa ΔA/B EcR + Aa USPb (Aedes aegypti, UniProt P49880).
T1 construct: ubiquitin (human, 76 aa) (N, cleaved yes); expressed in transfected cells
Format: cell-based. Conditions: RH 5992 10 μM, 4 hours, DMSO control 0.177. The protocol:
(§1) Briefly, yeast cells are cultured in 5 mL of YPD liquid medium overnight at 30° C. The cell culture was diluted 1:20 in YPD media and further grown until cell density reached an O.D of 0.6. at OD600. The cells were pelleted by centrifugation and washed with 10 mL of TE+0.1M lithium acetate. Cells are then resuspended in 10 mL TE+0.1M lithium acetate and incubated at 30° C. for 1 hour. Cells are collected and resuspended in 0.5 mL of TE+ 0.1M lithium acetate. Aliquots of cells (50 μL), were incubated for 15 minutes at 30° C. with 1–2 μg plasmid DNA in the presence of 5 μg of denatured salmon sperm DNA as DNA carrier. In the case of co-transformation, the indicated plasmids were added simultaneously. 50% polyethyleneglycol of molecular weight 4000, diluted in TE, was added to a final concentration of 35%. DMSO was added to the transformation solution simultaneously to a final concentration 3%. The samples were mixed well by vortexing and incubated for an additional 30 minutes at 30° C. The cell mixture is then heated for 15 minutes at 42° C. Cells were then collected and plated onto appropriate yeast selective media. Transformants of 4 plasmids are selected on the complete media without tryptophan, uracil, leucine and histidine.
(§2) The yeast cells grown overnight in selective liquid media at 30° C. were diluted in prewarmed liquid selective media to 0.1 at OD600 (ODculture). 100 μl of the cell culture was spiked to each well of a.96-well microtiter plate. […] After 4 hours of incubation, 100 μl of 2× “Z” Sarcosine-ONPG buffer (120 mM Na2HPO4, 80 mM NaH2PO4, 20 mM KCl, 2 mM MgSO4, 100 mM beta-mercaptoethanol (Sigma), pH 7.0, 0.4% lauroyl sarcosine (Sigma), 4 mg/mL ONPG (Diagnostic Chemicals limited) was added to each well and the plate was further incubated at 37° C. The 2× “Z” Sarcosine-ONPG buffer is freshly prepared or stored at −20° C. prior to use. After incubation at 37° C. for 1 hour. The reaction was stopped by adding 100 μL of quenching solution 0.5 M Na2CO3 and OD405 (ODreaction) and beta-galactosidase activity was measured in a micro plate reader (Biotek) at a wave length of 405–450 nanometers. […]
(§3) Using the transformation method described above, yeast were co-transformed with a reporter gene as shown in FIG. 2 and the expression vector encoding the full-length Aedes aegypti ecdysone receptor, Aa EcR (FIG. 7A) in the presence or absence of the Aa EcR heterodimer partner, Aa USP (a or b form, FIGS. 8A and 8B respectively). […] As the N-terminal portion of the AaEcR receptor is reported to play a role in ligand independent transactivation, an expression vector containing an N-terminal deletion in the Aa EcR was constructed (see FIG. 7B) and assessed in the β-galactosidase assays described above. […]

Test [2] has as its target T2, Aa ΔA/B EcR + AaUSPb + GRIP1 (Aedes aegypti, UniProt P49880).
T2 construct: ubiquitin (human, 76 aa) (N, cleaved yes); expressed in transfected cells
It counts as cell-based. The following applies: RH 5992 10 μM, 4 hours, DMSO control 0.240. The protocol: as §1, §2, §3

In test [3] the target is T3, Aa EcR (Aedes aegypti, UniProt P49880, DEL155-194).
T3 construct: ubiquitin (human, 76 aa) (N, cleaved yes); expressed in transfected cells
T3 sequence (P49880 other isoform, or with tags, fused parts or gaps DEL155-194): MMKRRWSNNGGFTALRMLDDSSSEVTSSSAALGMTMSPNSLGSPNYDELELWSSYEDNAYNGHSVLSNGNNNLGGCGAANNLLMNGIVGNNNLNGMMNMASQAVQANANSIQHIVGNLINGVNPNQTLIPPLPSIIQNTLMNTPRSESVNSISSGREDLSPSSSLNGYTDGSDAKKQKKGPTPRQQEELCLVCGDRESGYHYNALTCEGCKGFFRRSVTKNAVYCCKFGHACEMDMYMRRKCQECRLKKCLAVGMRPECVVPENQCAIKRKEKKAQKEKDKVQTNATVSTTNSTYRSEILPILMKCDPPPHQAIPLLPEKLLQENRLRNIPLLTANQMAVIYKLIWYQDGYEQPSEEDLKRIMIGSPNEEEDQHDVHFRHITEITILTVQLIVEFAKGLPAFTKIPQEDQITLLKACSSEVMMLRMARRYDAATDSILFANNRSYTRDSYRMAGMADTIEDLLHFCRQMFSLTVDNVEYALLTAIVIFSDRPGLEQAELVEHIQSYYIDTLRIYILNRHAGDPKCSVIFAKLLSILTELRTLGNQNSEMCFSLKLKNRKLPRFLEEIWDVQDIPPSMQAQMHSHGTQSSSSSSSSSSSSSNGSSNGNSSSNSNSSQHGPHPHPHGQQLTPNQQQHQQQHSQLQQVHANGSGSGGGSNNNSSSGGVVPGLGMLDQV
Format: cell-based. Conditions: RH 5992 10 μM, 4 hours, DMSO control 2.500. The protocol: as §1, §2, §3

The target of test [4] is T4, Aa ΔA/B EcR + Aa USPa + GRIP1 (Aedes aegypti, UniProt P49880).
T4 construct: ubiquitin (human, 76 aa) (N, cleaved yes); expressed in transfected cells
T4 sequence (P49880 with tags, fused parts or gaps): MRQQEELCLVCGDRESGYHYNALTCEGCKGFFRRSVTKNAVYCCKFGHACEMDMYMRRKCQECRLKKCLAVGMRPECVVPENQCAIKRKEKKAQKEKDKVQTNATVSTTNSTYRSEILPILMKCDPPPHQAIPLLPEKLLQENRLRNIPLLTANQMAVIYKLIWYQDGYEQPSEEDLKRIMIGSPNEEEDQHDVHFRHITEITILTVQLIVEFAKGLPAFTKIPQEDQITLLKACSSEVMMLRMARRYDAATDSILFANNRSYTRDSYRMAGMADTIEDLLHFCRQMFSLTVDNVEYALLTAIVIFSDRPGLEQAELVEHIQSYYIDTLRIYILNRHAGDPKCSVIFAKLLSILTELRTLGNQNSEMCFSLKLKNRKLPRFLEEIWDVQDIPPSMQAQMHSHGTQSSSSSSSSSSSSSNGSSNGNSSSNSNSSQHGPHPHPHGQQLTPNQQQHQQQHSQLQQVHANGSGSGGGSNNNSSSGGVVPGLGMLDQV
Format: cell-based. Conditions: RH 5992 10 μM, 4 hours, DMSO control 0.272. Here is the method:
as §1, §2, §3

In test [5] the target is T5, Dm ΔN EcR +Aa USPa-form + GRIP1 (Drosophila melanogaster, UniProt P34021).
T5 construct: ubiquitin (human, 76 aa) (N, cleaved yes); expressed in transfected cells
T5 sequence (P34021 221-878, stated change not applied): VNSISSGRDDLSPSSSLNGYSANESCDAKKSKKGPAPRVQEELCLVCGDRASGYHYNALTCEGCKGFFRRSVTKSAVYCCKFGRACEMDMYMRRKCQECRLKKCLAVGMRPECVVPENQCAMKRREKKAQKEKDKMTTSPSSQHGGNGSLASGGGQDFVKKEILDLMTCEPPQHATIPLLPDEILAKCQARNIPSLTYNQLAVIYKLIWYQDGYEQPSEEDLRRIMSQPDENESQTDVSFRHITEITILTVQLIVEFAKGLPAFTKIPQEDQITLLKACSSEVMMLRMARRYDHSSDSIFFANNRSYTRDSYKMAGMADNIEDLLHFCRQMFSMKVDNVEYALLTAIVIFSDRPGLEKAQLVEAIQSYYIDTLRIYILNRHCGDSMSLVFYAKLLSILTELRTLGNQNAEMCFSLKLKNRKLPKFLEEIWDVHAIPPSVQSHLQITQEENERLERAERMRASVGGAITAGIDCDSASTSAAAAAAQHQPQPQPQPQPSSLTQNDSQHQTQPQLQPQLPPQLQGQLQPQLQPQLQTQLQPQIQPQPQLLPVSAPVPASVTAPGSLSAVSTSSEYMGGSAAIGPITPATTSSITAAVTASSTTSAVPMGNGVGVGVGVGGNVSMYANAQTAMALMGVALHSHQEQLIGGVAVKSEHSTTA
Format: cell-based, Drosophila melanogaster; Aedes aegypti. The following applies: RH 5992 10 μM, 4 hours, DMSO control 0.243. Here is the method: as §1, with “DMSO was added to the transformation solution simultaneously to a final concentration 3%. The samples were mixed well by vortexing and incubated for an additional 30 minutes at 30° C. The cell mixture is then heated for 15 minutes at 42° C. Cells were then collected and plated onto appropriate yeast selective media. Transformants of 4 plasmids are selected on the complete media without tryptophan, uracil, leucine and histidine.” left out
(§4) Using the transformation method set forth above, yeast were co-transformed with a reporter gene as shown in FIG. 2 and the expression vector encoding the full-length D. melanogaster ecdysone receptor, DmEcR (FIG. 3A) in the presence or absence of the Dm EcR heterodimer partner, DmUSP (FIG. 4A). […] As the N-terminal portion of the Dm EcR receptor is reported to play a role in ligand independent transactivation, an expression vector containing an N-terminal deletion in the EcR was constructed (see FIG. 3B) and assessed in the β-galactosidase assays described above. […]

Test [6] addresses T6, Dm ΔN EcR +Aa USPb-form + GRIP1 (Drosophila melanogaster, UniProt P34021).
T6 construct: ubiquitin (human, 76 aa) (N, cleaved yes); expressed in transfected cells
It counts as cell-based, Drosophila melanogaster; Aedes aegypti. Conditions: RH 5992 10 μM, 4 hours, DMSO control 0.251. The protocol:
as §1, with “DMSO was added to the transformation solution simultaneously to a final concentration 3%. The samples were mixed well by vortexing and incubated for an additional 30 minutes at 30° C. The cell mixture is then heated for 15 minutes at 42° C. Cells were then collected and plated onto appropriate yeast selective media. Transformants of 4 plasmids are selected on the complete media without tryptophan, uracil, leucine and histidine.” left out
as §4

T6 sequence (P34021 221-878, stated change not applied): as above
T1 sequence (P49880 with tags, fused parts or gaps): as the sequence (P49880 with tags, fused parts or gaps) above
T2 sequence (P49880 with tags, fused parts or gaps): as above

As to `CCc1ccc(C(=O)NN(C(=O)c2cc(C)cc(C)c2)C(C)(C)C)cc1` [RH 5992, tebufenozide], the β-galactosidase activity amounted to 0.184 in test [1]; 2.074 in test [2]; 2.750 in test [3]; 2.026 in test [4]; 1.860 in test [5]; 2.068 in test [6].

These data come from patent publication US7037656B2, “Methods and compositions for identifying ligands for nuclear receptors” (priority 2000, dated 2006).
